Source: patent US10113150B2, “Engineered cardiac tissues and methods of using them” (InvivoSciences, Inc., priority 2011, dated 2018)

Tests used:
[1] = system: mitochondrial membrane potential of EHTs; assay: Mitochondrial membrane potential (MMP) of EHTs by TMRE fluorescence; format: cell-based, rat
Source text: The bottoms of the 8-well chambers were sealed with glass coverslips so that EHT cells could be observed using various optical instruments including microscopes and fluorescence plate readers in real time or after fixations. […] Mitochondria produce ATP via the electrochemical/osmotic gradient (˜180 mV) generated and maintained by the electron transport chain. Therefore, highly charged mitochondria produce ATP to support cardiac contractions.
Using a fluorescence plate reader (Synergy™ HT, BioTek U.S., Winooski, V T), we simultaneously measured TMRE's fluorescent signal (543 nm excitation/605±16 nm emission) and EHT contractions to determine the coupling between MMP and cardiac contractility. After a short (15-min) administration of 900 μM DNP (2,4-dinitrophenol), a potent uncoupler of MMP (FIG. 7F), to the EHTs MMP was reduced and cardiac contraction stopped (FIG. 7E).
Drug-induced cardiotoxicity often damages mitochondrial metabolic activity. We have developed additional assays for quantifying the mitochondrial membrane potential (MMP) of EHTs using the cationic potential metric dye tetramethylrhodamine ethyl ester (TMRE), and we are also assessing EHT viability using 3-(4,5-Dimethylthiazol-2-yl)-2,5-diphenyltetrazolium (MTT). An automated microplate reader was used to measure fluorescence or optical absorbance of these dyes. With these assays, we successfully screened for a small molecule that modulates cellular and tissue contractility without altering MMP and viability of cells (details in Lam, V. and T. Wakatsuki, Hydrogel Tissue Construct-Based High-Content Compound Screening. Journal of Biomolecular Screening, 2011. 16(1): p. 120-128.). Four test compounds were assayed: Rho kinase inhibitor (H1152), cytochalasin D (CD), 2,4-dinitrophenol (DNP), and rotenone (ROT). […] Assays to assess mitochondrial activity and metabolic parameters such as ATP concentrations, O2 consumption and free radical production have been measured using similar techniques, see e.g. Lam, V. and T. Wakatsuki, Hydrogel Tissue Construct-Based High-Content Compound Screening. […]

[2] = system: engineered heart tissues (EHTs); assay: EHT contractility assay (cardiac twitch force, Palpator)
Source text: EHTs were fabricated with 1.75-2×10^6 cardiomyocytes/mL using MC-8™ system (InvivoSciences, LLC). The cardiomyocytes were obtained from neonatal rats and guinea pigs, or embryonic mice or chicken. Viable and spontaneously twitching EHTs were generally obtained by day 10 after fabrication. The EHTs were electrically stimulated (60 mV, 1 Hz) during mechanical testing. The mechanical properties of EHTs using the Palpator™ device (InvivoSciences, LLC). This automated device positions a force probe directly above the center of each well (FIG. 7A-i) and moves it vertically in two (or more) steps (FIG. 7A-ii, -iii) to stretch twice the EHT to 3.7% and 7.7% longitudinally. Cardiac twitch (systolic) force and resting (diastolic) force were measured during each step for 30 and 60 s. […] The peak rate at which the cardiac twitch force changes (FIG. 7C) also indicated the contractility (FIG. 7D) of the EHT much like the dP/dtmax of left ventricles measured by pressure catheters.
To validate the ability of our assay system to assess cardiotoxicity, we profiled the effects of anti-cancer agents (doxorubicin and daunorubicin) and beta-adrenoceptor agonist (isoproterenol), which are known to cause cardiotoxicity in clinical and experimental applications. […] After a 3-day incubation with doxorubicin (20 nM, 200 nM, or 1 μM) the EHTs were measured again and their viability was determined.

[3] = system: cardiac fibroblasts / myofibroblasts (mFBs) in EHTs; assay: Elimination of puromycin-sensitive fibroblasts in EHTs; format: cell-based, human; parameters: effect on mFBs: dose or concentration left out as unconfirmed
Source text: We fabricated EHTs using CMs derived from mouse ES cells (Cor.AT, Axiogenesis) that express a puromycin resistance-GFP reporter gene fusion driven by a cardiac-specific (αMHC) promoter. These Cor.AT CMs (1.75×10^6) were co-cultured with cardiac fibroblasts (FBs) in a 1:1 ratio (See Asnes, C. F., et al., Reconstitution of the Frank-Starling mechanism in engineered heart tissues. Biophys J, 2006. 91(5): p. 1800-10) for developing a coherently contracting EHT. The EHTs were compressed by the FBs from a loose (6×6×3.5 mm^3) hydrogel into a compacted (˜3×2×0.5 mm^3) coherently contracting tissue in 5-7 days. […] The remodeling capacity of FBs was needed to fabricate compressed 3D tissues that can generate cardiac contraction synchronously. Upon achieving synchronous contraction, the cardiac twitch force was measured using the Palpator. […] We expected that application of a similar protocol to fabricate EHTs with iPSC-derived CMs should produce similar cardiac contractility since individual CMs derived from human ES cells, iPSCs, and native rat hearts produced equivalent degrees of cardiac contractility. Our results showing similar results for human ES cells is below.
An increasing density of cardiomyocytes (CMs) in the EHT constructs promoted intercellular contacts to form a synchronously contracting EHT while myofibroblasts (mFBs) remodeled and compressed the constructs. However, an overgrowth of mFBs limited survival of CMs. By regulating the mFB proliferation, cardiac contractility of EHTs without mFBs was maintained at least 10-50% longer than those with mFBs. […] The Cor.AT CMs (1.75×10^6) were co-cultured with mFBs in a 5:1 ratio using previously published method and developed a coherently beating EHT. The EHTs with mFBs were compressed from a loose (6×6×3.5 mm^3) hydrogel into a compacted (˜3×2×0.5 mm^3) tissue in 5-7 days (FIG. 15B). Varying numbers of mFBs were mixed with CMs (e.g., 0.1:1, 0.5:1 up to 1:1) to fabricate EHTs. […]

[4] = 900 μM, short (15-min) administration to EHTs

| Compound | MMP (mitochondrial membrane potential) ([1]; 450 μM) | MMP (mitochondrial membrane potential) [1, 4] | EC50 ([1]; rat EHT, FIG. 14, read-out: EC50 of MMP dissipation) | cardiac twitch force ([2]; 450 μM) | cardiac contraction [2, 4] | twitch force ([2]; increasing concentrations, FIG. 7E) | effect on mFBs [3] | effect on puromycin sensitive FBs ([3]; 5 μM, after compaction, EHTs with Cor.AT CMs) | effect on mFB in the EHTs ([3]; 10 μM, Cor.AT myocytes with human cardiac myofibroblasts) |
| --- | --- | --- | --- | --- | --- | --- | --- | --- | --- |
| O=[N+]([O-])c1ccc(O)c([N+](=O)[O-])c1 [DNP, 2,4-dinitrophenol] | attenuated | reduced | 340 µM | not reduced significantly | stopped | reduced |  |  |  |
| COc1ccc(C[C@H](N)C(=O)N[C@H]2[C@@H](O)[C@H](n3cnc4c(N(C)C)ncnc43)O[C@@H]2CO)cc1 [puromycin] |  |  |  |  |  |  | eliminated | eliminated or their viability reduced | eliminated |
